From article PMC3903614, “Factors That Control the Chemistry of the LOV Domain Photocycle” (PLoS ONE, 2014)

Columns and labels:
Assay in all cases: UV-Vis absorbance of bound flavin, dark recovery after photosaturation
Assay type in all cases: binding
[1] = target: T1, AsLOV2 (A. sativa phot1 LOV2) (Avena sativa, UniProt O49003, C450V/F494C); conditions: 22 °C; relocated active-site cysteine (C494); covalent photoadduct in the light, <10% bleaching; adduct decay time, not an affinity
T1 construct: gene NPH1-1; LOV2 domain with flanking helices, residues 404-560; His6-Gβ1 tag removed by TEV; GEF left on the amino terminus and G on the carboxy terminus; expressed in E. coli BL21(DE3)
T1 sequence (O49003 entry or part of it C450V/F494C): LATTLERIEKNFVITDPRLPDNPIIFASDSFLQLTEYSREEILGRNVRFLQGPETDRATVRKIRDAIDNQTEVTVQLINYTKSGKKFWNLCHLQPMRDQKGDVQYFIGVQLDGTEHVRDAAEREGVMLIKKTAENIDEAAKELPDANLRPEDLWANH
Text: (§1) UV-Vis absorbance of bound flavin, dark recovery after photosaturation on AsLOV2 (A. sativa phot1 LOV2)

[2] = target: T2, AsLOV2 (A. sativa phot1 LOV2) (Avena sativa, UniProt O49003, F494C); conditions: 22 °C; bound chromophore; covalent photoadduct with C450 in the light; adduct decay time, not an affinity
T2 construct: gene NPH1-1; LOV2 domain with flanking helices, residues 404-560; His6-Gβ1 tag removed by TEV; GEF left on the amino terminus and G on the carboxy terminus; expressed in E. coli BL21(DE3)
T2 sequence (O49003 entry or part of it F494C): as the sequence (O49003 entry or part of it C450V/F494C) above, with V47C counted along it
Text: as §1

[3] = target: T3, AsLOV2 (A. sativa phot1 LOV2) (Avena sativa, UniProt O49003, N414A); conditions: 22 °C; bound chromophore; covalent photoadduct with C450 in the light; adduct decay time, not an affinity
T3 construct: gene NPH1-1; LOV2 domain with flanking helices, residues 404-560; His6-Gβ1 tag removed by TEV; GEF left on the amino terminus and G on the carboxy terminus; expressed in E. coli BL21(DE3)
T3 sequence (O49003 entry or part of it N414A): as the sequence (O49003 entry or part of it C450V/F494C) above, with N11A, V47C, C91F counted along it
Text: as §1

[4] = target: T4, AsLOV2 (A. sativa phot1 LOV2) (Avena sativa, UniProt O49003, N414D); conditions: 22 °C; bound chromophore; covalent photoadduct with C450 in the light; adduct decay time, not an affinity
T4 construct: gene NPH1-1; LOV2 domain with flanking helices, residues 404-560; His6-Gβ1 tag removed by TEV; GEF left on the amino terminus and G on the carboxy terminus; expressed in E. coli BL21(DE3)
T4 sequence (O49003 entry or part of it N414D): as the sequence (O49003 entry or part of it C450V/F494C) above, with N11D, V47C, C91F counted along it
Text: as §1

[5] = target: T5, AsLOV2 (A. sativa phot1 LOV2) (Avena sativa, UniProt O49003, N414G); conditions: 22 °C; bound chromophore; covalent photoadduct with C450 in the light; adduct decay time, not an affinity
T5 construct: gene NPH1-1; LOV2 domain with flanking helices, residues 404-560; His6-Gβ1 tag removed by TEV; GEF left on the amino terminus and G on the carboxy terminus; expressed in E. coli BL21(DE3)
T5 sequence (O49003 entry or part of it N414G): as the sequence (O49003 entry or part of it C450V/F494C) above, with N11G, V47C, C91F counted along it
Text: as §1

[6] = target: T6, AsLOV2 (A. sativa phot1 LOV2) (Avena sativa, UniProt O49003, N414L); conditions: 22 °C; bound chromophore; covalent photoadduct with C450 in the light; adduct decay time, not an affinity
T6 construct: gene NPH1-1; LOV2 domain with flanking helices, residues 404-560; His6-Gβ1 tag removed by TEV; GEF left on the amino terminus and G on the carboxy terminus; expressed in E. coli BL21(DE3)
T6 sequence (O49003 entry or part of it N414L): as the sequence (O49003 entry or part of it C450V/F494C) above, with N11L, V47C, C91F counted along it
Text: as §1

[7] = target: T7, AsLOV2 (A. sativa phot1 LOV2) (Avena sativa, UniProt O49003, N414Q); conditions: 22 °C; bound chromophore; covalent photoadduct with C450 in the light; adduct decay time, not an affinity
T7 construct: gene NPH1-1; LOV2 domain with flanking helices, residues 404-560; His6-Gβ1 tag removed by TEV; GEF left on the amino terminus and G on the carboxy terminus; expressed in E. coli BL21(DE3)
T7 sequence (O49003 entry or part of it N414Q): as the sequence (O49003 entry or part of it C450V/F494C) above, with N11Q, V47C, C91F counted along it
Text: as §1

[8] = target: T8, AsLOV2 (A. sativa phot1 LOV2) (Avena sativa, UniProt O49003, Q513D); conditions: 22 °C; bound chromophore; covalent photoadduct with C450 in the light; adduct decay time, not an affinity
T8 construct: gene NPH1-1; LOV2 domain with flanking helices, residues 404-560; His6-Gβ1 tag removed by TEV; GEF left on the amino terminus and G on the carboxy terminus; expressed in E. coli BL21(DE3)
T8 sequence (O49003 entry or part of it Q513D): as the sequence (O49003 entry or part of it C450V/F494C) above, with V47C, C91F, Q110D counted along it
Text: as §1

[9] = target: T9, AsLOV2 (A. sativa phot1 LOV2) (Avena sativa, UniProt O49003, Q513L); conditions: 22 °C; bound chromophore; covalent photoadduct with C450 in the light; adduct decay time, not an affinity
T9 construct: gene NPH1-1; LOV2 domain with flanking helices, residues 404-560; His6-Gβ1 tag removed by TEV; GEF left on the amino terminus and G on the carboxy terminus; expressed in E. coli BL21(DE3)
T9 sequence (O49003 entry or part of it Q513L): as the sequence (O49003 entry or part of it C450V/F494C) above, with V47C, C91F, Q110L counted along it
Text: as §1

[10] = target: T10, AsLOV2 (A. sativa phot1 LOV2) (Avena sativa, UniProt O49003); conditions: 22 °C; bound chromophore; covalent cysteinyl-C4a photoadduct with C450 in the light, noncovalent in the dark; adduct decay time, not an affinity; Table 1 gives 80 s from earlier work
T10 construct: gene NPH1-1; LOV2 domain with flanking helices, residues 404-560; His6-Gβ1 tag removed by TEV; GEF left on the amino terminus and G on the carboxy terminus; expressed in E. coli BL21(DE3)
T10 sequence (O49003 entry or part of it): as the sequence (O49003 entry or part of it C450V/F494C) above, with V47C, C91F counted along it

τFMN [1]: 69 s | τFMN [2]: 282 s | τFMN [3]: 1427 s | τFMN [4]: 69 s | τFMN [5]: 615 s | τFMN [6]: 1847 s | τFMN [7]: 280 s | τFMN [8]: 5 s | τFMN [9]: 1793 s | τFMN [10]: 81 ± 2 s
Structure (SMILES): Cc1cc2nc3c(=O)[nH]c(=O)nc-3n(C[C@H](O)[C@H](O)[C@H](O)COP(=O)(O)O)c2cc1C [FMN, flavin mononucleotide]
